Measurements as given in the CheMixHub viscosity set.

Test: xn = mol fraction of the nth substance listed

CCCCOC(C)=O + CCCCCCCCCCCC
298.15 K, 101.3 kPa
Settings | viscosity [mPa·s]
x1 = 0.133 | 1.231
x1 = 0.2982 | 1.09
x1 = 0.4364 | 0.9867
x1 = 0.4791 | 0.9597
x1 = 0.5426 | 0.9188
x1 = 0.683 | 0.8358
x1 = 0.7904 | 0.7782
x1 = 0.8705 | 0.7393
x1 = 0.9238 | 0.7176
x1 = 0.9757 | 0.6938

CCCCOC(C)=O + CCCO
viscosity [mPa·s], 101 kPa
Settings | 298.15 K | 303.15 K | 308.15 K | 313.15 K
x1 = 0.0995 | 1.689 | 1.479 | 1.311 | 1.19
x1 = 0.1003 | – | 1.296 | – | –
x1 = 0.198 | – | 1.062 | – | –
x1 = 0.1987 | 1.483 | 1.293 | 1.148 | 1.048
x1 = 0.2976 | 1.308 | 1.148 | 1.025 | 0.942
x1 = 0.3002 | – | 0.912 | – | –
x1 = 0.4004 | – | 0.821 | – | –
x1 = 0.4009 | 1.151 | 1.011 | 0.915 | 0.848
x1 = 0.4989 | 1.023 | 0.903 | 0.822 | 0.77
x1 = 0.5001 | – | 0.755 | – | –
x1 = 0.5969 | 0.921 | 0.836 | 0.76 | 0.713
x1 = 0.6002 | – | 0.705 | – | –
x1 = 0.6993 | 0.833 | 0.766 | 0.7 | 0.67
x1 = 0.7001 | – | 0.674 | – | –
x1 = 0.7999 | – | 0.654 | – | –
x1 = 0.8008 | 0.767 | 0.717 | 0.666 | 0.631
x1 = 0.8932 | 0.717 | 0.68 | 0.636 | 0.61
x1 = 0.9002 | – | 0.641 | – | –

CCCN + CNC(C)=O
308.15 K, 101 kPa
Settings | viscosity [mPa·s]
x2 = 0.0288 | 0.3203
x2 = 0.161 | 0.4788
x2 = 0.322 | 0.6904
x2 = 0.4077 | 0.8508
x2 = 0.5208 | 1.16
x2 = 0.6414 | 1.544
x2 = 0.7368 | 1.882
x2 = 0.8217 | 2.222
x2 = 0.9755 | 3.191

CCCCOC(C)=O + Cc1ccccc1C
viscosity [mPa·s], 101 kPa
Settings | 298.15 K | 308.15 K
x1 = 0.0481 | 0.751 | 0.652
x1 = 0.1501 | 0.735 | 0.64
x1 = 0.2484 | 0.722 | 0.63
x1 = 0.3482 | 0.71 | 0.621
x1 = 0.4474 | 0.7 | 0.614
x1 = 0.5002 | 0.696 | 0.61
x1 = 0.5477 | 0.692 | 0.607
x1 = 0.657 | 0.685 | 0.602
x1 = 0.7456 | 0.68 | 0.599
x1 = 0.8459 | 0.677 | 0.596
x1 = 0.9461 | 0.675 | 0.594

Clc1ccccc1Cl + CCNc1ccccc1
viscosity [mPa·s], 101 kPa
Settings | 303.15 K | 308.15 K
x2 = 0.0789 | 1.286 | 1.19
x2 = 0.1156 | 1.309 | 1.21
x2 = 0.1659 | 1.338 | 1.234
x2 = 0.2569 | 1.391 | 1.277
x2 = 0.3287 | 1.43 | 1.309
x2 = 0.3968 | 1.467 | 1.339
x2 = 0.4925 | 1.516 | 1.379
x2 = 0.5421 | 1.541 | 1.399
x2 = 0.6325 | 1.584 | 1.434
x2 = 0.6897 | 1.611 | 1.454
x2 = 0.7659 | 1.646 | 1.48
x2 = 0.8425 | 1.678 | 1.508
x2 = 0.9121 | 1.709 | 1.531

CCCN + CCCCN(CCCC)CCCC
303.15 K, 101 kPa
Settings | viscosity [mPa·s]
x2 = 0.2025 | 0.5088
x2 = 0.4055 | 0.6949
x2 = 0.4953 | 0.7795
x2 = 0.603 | 0.8793
x2 = 0.7931 | 1.04

CN1CCCN(C)C1=O + CCCCCCn1cc[n+](C)c1.[Cl-]
100 kPa
Settings | viscosity [mPa·s]
298.15 K, x2 = 0.3083 | 45.85
308.15 K, x2 = 0.3981 | 63.85

CCCN + CCCO
Settings | viscosity [mPa·s]
298.15 K, 100 kPa, x2 = 0.0523 | 0.3938
298.15 K, 100 kPa, x2 = 0.1008 | 0.4276
298.15 K, 100 kPa, x2 = 0.2001 | 0.5072
298.15 K, 100 kPa, x2 = 0.2985 | 0.6113
298.15 K, 100 kPa, x2 = 0.3979 | 0.7332
298.15 K, 100 kPa, x2 = 0.5037 | 0.864
298.15 K, 100 kPa, x2 = 0.5989 | 1.002
298.15 K, 100 kPa, x2 = 0.7015 | 1.186
298.15 K, 100 kPa, x2 = 0.7962 | 1.378
298.15 K, 100 kPa, x2 = 0.9032 | 1.671
298.15 K, 100 kPa, x2 = 0.9626 | 1.843
303.15 K, 101.33 kPa, x1 = 0.0903 | 1.559
303.15 K, 101.33 kPa, x1 = 0.1862 | 1.343
303.15 K, 101.33 kPa, x1 = 0.2822 | 1.157
303.15 K, 101.33 kPa, x1 = 0.3807 | 0.9888
303.15 K, 101.33 kPa, x1 = 0.4868 | 0.8381
303.15 K, 101.33 kPa, x1 = 0.5804 | 0.7151
303.15 K, 101.33 kPa, x1 = 0.6878 | 0.596
303.15 K, 101.33 kPa, x1 = 0.7825 | 0.5123
303.15 K, 101.33 kPa, x1 = 0.901 | 0.417
313.15 K, 101.33 kPa, x1 = 0.0903 | 1.255
313.15 K, 101.33 kPa, x1 = 0.1862 | 1.096
313.15 K, 101.33 kPa, x1 = 0.2822 | 0.9516
313.15 K, 101.33 kPa, x1 = 0.3807 | 0.8187
313.15 K, 101.33 kPa, x1 = 0.4868 | 0.6961
313.15 K, 101.33 kPa, x1 = 0.5804 | 0.6034
313.15 K, 101.33 kPa, x1 = 0.6878 | 0.5101
313.15 K, 101.33 kPa, x1 = 0.7825 | 0.4401
313.15 K, 101.33 kPa, x1 = 0.901 | 0.3655

CCCOC(=O)c1ccccc1 + CCCCCCC
viscosity [mPa·s], 101 kPa
Settings | x1 = 0.099 | x1 = 0.1965 | x1 = 0.2952 | x1 = 0.395 | x1 = 0.4959 | x1 = 0.5924 | x1 = 0.6991 | x1 = 0.7981 | x1 = 0.8973
298.15 K | 0.444 | 0.516 | 0.603 | 0.707 | 0.842 | 1.017 | 1.254 | 1.526 | 1.853
308.15 K | 0.399 | 0.466 | 0.531 | 0.614 | 0.734 | 0.874 | 1.051 | 1.248 | 1.525
318.15 K | 0.358 | 0.408 | 0.472 | 0.55 | 0.638 | 0.754 | 0.897 | 1.064 | 1.266

CCCCOC(C)=O + CS(C)=O
viscosity [mPa·s], 101.33 kPa
Settings | x2 = 0.074 | x2 = 0.1418 | x2 = 0.2774 | x2 = 0.46 | x2 = 0.5396 | x2 = 0.6383 | x2 = 0.7272 | x2 = 0.809 | x2 = 0.9021 | x2 = 0.9703
293.15 K | 0.774 | 0.789 | 0.868 | 1.011 | 1.098 | 1.211 | 1.363 | 1.527 | 1.791 | 2.063
303.15 K | 0.678 | 0.692 | 0.752 | 0.879 | 0.931 | 1.032 | 1.146 | 1.28 | 1.488 | 1.697
313.15 K | 0.592 | 0.606 | 0.662 | 0.766 | 0.809 | 0.889 | 0.983 | 1.117 | 1.258 | 1.423
